# Data from US20090247461A1, “METHODS FOR THERAPEUTIC TREATMENT OF PAIN” (priority 2004, published 2009).
# Tests used:
# [1] = system: sciatic nerve ligation injury model; test: Heat test before and after administration of serotonin depletor, opioid antagonist, α- or β-adrenergic receptor blocker; type: in vivo, rat; conditions: 3 weeks after ligation; for heat test with vs without / before vs after the depletor or blocker, control group: saline control group, 5,7-DHT intradural, naloxone 5 mg/kg, propranolol 10 mg/kg
# Description: (§1) A sciatic nerve ligation injury model was prepared by modifying the neuropathic pain model published by Bennett et al. according to the method of Takeba (Pain, Vol. 33, pp. 87-107, 1988; Ehime Igaku (Ehime Medical Journal), Vol. 21, pp. 192-206, 2002). Under anesthesia by inhalation of 3% halothane and nitrous oxide, bilateral sciatic nerves of 8- to 12-week old female Wistar rats (Clea Japan, Inc., Osaka) were exposed and ligated at the central level of the femur along with a 27-gauge injection needle on the both sides by using a 4-0 polyglycolic acid suture at 4 sites at intervals of 1 mm for both sides. Then, the injection needle was removed to prepare a sciatic nerve ligation injury model. The ligation was attained to such a degree that the crural muscles slightly contractable by a stimulus given to the nerve, and care was taken not to cause injury in the axon by the ligation operation itself.
# A solution of ginsenoside Rb1 (0.10 or 0.50 μg/μl) in a volume of 120 μl or an equivalent volume of saline was intravenously administered by one-shot to rats 24 hours after the sciatic nerve ligation. Then, ginsenoside Rb1 was intravenously administered continuously by using the continuous injection pump at a dose of 12 μg/day (hereinafter referred to as “S12”) or 60 μg/day (hereinafter referred to as “S60”) and a rate of 0.25 μL/hour for 4 weeks. Similarly, saline was intravenously administered continuously for 4 weeks as the control group.
# (§2) To determine thermal paw withdrawal latency, a heat test was performed by using Plantar Test produced by Ugo Basile (Planter test 7370, Ugo Basile, Italy) according to the method of Hargreaves et al. (Pain, Vol. 32, pp. 77-88, 1988). Rats were placed on a plastic table maintained at a temperature of 23 to 24° C. and stimulated on the sole by using a thermal stimulator, and withdrawal latency (seconds) was measured. Occurrence of hyperalgesia was determined on the basis of shortening of the latency. The latency was measured 3 times for both the soles always at an interval of 5 minutes, and the average of the results of 6 times in total of measurements was used as a measured value.
# To elucidate the action mechanism of Rb1, examination was performed by using depletors or blockers against substances reported to be involved in the descending pain signal transmission in the spinal cord, such as serotonin depletors, opioid receptor antagonists, α-adrenergic receptor blockers, and β-adrenergic receptor blockers (Biol. Pharm. Bull., 22-7, pp. 691-697, 1999). The heat test was performed 24 hours after the sciatic nerve ligation, and only rats showing an average latency for both feet of 90% or lower of the same before the operation were used. Animals in a number of 48 in total were arbitrarily divided into 8 groups (6 animals per group) to prepare Rb1-administered groups and a control group. A serotonin depletor, opioid receptor antagonist, α-adrenergic receptor blocker and β-adrenergic receptor blocker were each administered 3 weeks after the ligation, the heat test was performed before and after the administration, and the results were compared.
# The serotonin depletor, 5,7-dihydroxytryptamine (5,7-DHT, ICN Biomedicals Inc., Ohio, U.S.A), was intradurally administered in an amount of […] 1 week before the measurement, and the heat test was performed 3 weeks after the ligation. Further, the heat test was performed 3 weeks after the ligation, on the following day, 5 mg/kg of the opioid receptor antagonist, naloxone (USP, Rockville, U.S.A), 10 mg/kg of the β-adrenergic receptor blocker, propranolol (SIGMA-ALDRICH Co., St. Louis, U.S.A), and 20 mg/kg of the α-adrenergic receptor blocker, phentolamine (SIGMA-ALDRICH Co., St. Louis, U.S.A), were each subcutaneously injected, and the heat test was performed again one hour later.
# mice = conditions: cited from earlier work
# [2] = system: sciatic nerve ligation injury model; test: Heat test (thermal paw withdrawal latency) in sciatic nerve ligation injury model; type: in vivo, rat; conditions: continuously administered i.v. for 4 weeks from 24 hours after sciatic nerve ligation (12 or 60 μg/day); 3 weeks after the ligation and thereafter; vs saline control
# Description: as §1, with “The ligation was attained to such a degree that the crural muscles slightly contractable by a stimulus given to the nerve, and care was taken not to cause injury in the axon by the ligation operation itself.” left out
# as §2
# [3] = system: sciatic nerve ligation injury model; test: Pressure test (von Frey withdrawal threshold) in sciatic nerve ligation injury model; type: in vivo, rat; conditions: continuously administered i.v. for 4 weeks from 24 hours after sciatic nerve ligation, vs saline control
# Description: as §1, with “The ligation was attained to such a degree that the crural muscles slightly contractable by a stimulus given to the nerve, and care was taken not to cause injury in the axon by the ligation operation itself.” left out
# To measure the pain threshold for a mechanical stimulus (von Frey withdrawal threshold), the von Frey hair test was performed in the same manner as in the Semmes-Weinstein test (Z. Gesamte Neurol. Psychiat., Vol. 79, pp. 324-333, 1922; Perceptual and Motor Skills, Vol. 14, pp. 351-354, 1962; The Journal of Hand Surgery, Vol. 3, pp. 211-216, 1978), which is clinically performed. […] In this procedure, the pain threshold (g) for the pressure stimuli to both the soles was measured twice for each time, and the average of the results obtained in measurements of 4 times in total was used as a measured value.
# [4] = system: α2A-adrenergic receptor mRNA; test: Measurement of α2A-adrenergic receptor mRNA in the spinal cord by RT-PCR; type: in vivo, rat; conditions: 60 μg/day i.v. continuously; 3 weeks after sciatic nerve ligation; compared with control group and sham operation group
# Description: The spinal cord in the sciatic nerve innervation territory was removed from rats of the sham operation group (n=7) and rats 3 weeks after the sciatic nerve ligation (each n=7) which were intravenously administered with saline or 60 μg/day of ginsenoside Rb1 (S60) continuously from 24 hours after the sciatic nerve ligation, and total RNA was extracted by using ISOGEN (Nippon Gene, Tokyo). The extracted total RNA was treated with DNase, and single-stranded cDNA was synthesized by using oligo-dT primers and Moloney murine leukemia virus reverse transcriptase (Life Technologies, Rockville, USA). The sequences of the primers used in this example were as follows.
# PCR was performed under the following condition using Taq polymerase (Takara, Tokyo). For β-actin, after a reaction at 94° C. for 5 minutes, a cycle of heat denaturation at 94° C. for 1 minute, annealing at 55° C. for 1 minute and 30 seconds and elongation at 72° C. for 1 minute and 30 seconds was repeated 25 times. For α2A-adrenergic receptor, after a reaction at 94° C. for 2 minutes, a cycle of heat denaturation at 94° C. for 1 minute, annealing at 60° C. for 1 minute and elongation at 72° C. for 1 minute was repeated 30 times. As the internal control, β-actin was used.
# [5] = system: α2A-adrenergic receptor protein; test: Expression of α2A-adrenergic receptor protein in the spinal cord (immunoblot); type: in vivo, rat; conditions: 60 μg/day i.v. continuously; 3 weeks after sciatic nerve ligation; compared with control group and sham operation group
# Description: The spinal cord in the sciatic nerve innervation territory was removed from rats of the sham operation group (n=3) and rats 3 weeks after the sciatic nerve ligation (each n=3) which were intravenously administered with saline or 60 μg/day of ginsenoside Rb1 (S60) continuously from 24 hours after the sciatic nerve ligation, added to 10 times in volume of 50 mM phosphate buffer, 100 μM pAPMSF, 0.5% Triton-X and 0.5% SDS, and homogenized. The homogenate was added with a half volume of 6% SDS (+β-mercaptoethanol), incubated at 99° C. for 10 minutes and centrifuged at 15,000 rpm and 4° C. for 10 minutes, and the supernatant was used as a sample. Electrophoresis was performed on 10% SDS polyacrylamide, and then the protein was transferred on a polyvinylidine difluoride membrane (Millipore, Bedford, U.S.A.) by using a transblotting apparatus. Western blotting was performed by using anti-α2A-adrenoceptor antibody (ALEXIS BIOCHEMICALS, San Diego, USA) as the primary antibody and anti-rabbit IgG conjugated with alkaline phosphatase (SIGMA Chemicals, St. Louis, U.S.A) as the secondary antibody.
# [6] = system: transient forebrain ischemia; conditions: oral (red ginseng powder) or intraperitoneal (crude ginseng saponin, ginsenoside Rb1) over one week before ischemia; cited from earlier work
# [7] = system: transient forebrain ischemia; conditions: continuously injected into the brain ventricle for 7 days after ischemia, cited from earlier work
compound,measurement,setting,value
"NCCc1c[nH]c2c(O)cc(O)cc12 [5,7-DHT, 5,7-dihydroxytryptamine, reference compound]","heat test with vs without / before vs after the depletor or blocker, control group",[1]; phentolamine 20 mg/kg s.c.,no significant difference
"CC(C)=CCC[C@](C)(O[C@@H]1O[C@H](CO[C@@H]2O[C@@H](CO)[C@H](O)[C@H]2O)[C@@H](O)[C@H](O)[C@H]1O)[C@H]1CC[C@]2(C)[C@@H]1[C@H](O)C[C@@H]1[C@@]3(C)CC[C@H](O[C@@H]4O[C@H](CO)[C@@H](O)[C@H](O)[C@H]4O[C@@H]4O[C@H](CO)[C@@H](O)[C@H](O)[C@H]4O)C(C)(C)[C@@H]3CC[C@]12C [Rc, ginsenoside Rc]",analgesic effect,mice,analgesic effect
"CC(C)=CCC[C@](C)(O[C@@H]1O[C@H](CO)[C@@H](O)[C@H](O)[C@H]1O)[C@H]1CC[C@]2(C)[C@@H]1[C@H](O)C[C@@H]1[C@@]3(C)CC[C@H](O[C@@H]4O[C@H](CO)[C@@H](O)[C@H](O)[C@H]4O[C@@H]4O[C@H](CO)[C@@H](O)[C@H](O)[C@H]4O)C(C)(C)[C@@H]3CC[C@]12C [Rd, ginsenoside Rd]",analgesic effect,mice,analgesic effect
"CC(C)=CCC[C@](C)(O[C@@H]1O[C@H](CO)[C@@H](O)[C@H](O)[C@H]1O)[C@H]1CC[C@]2(C)[C@@H]1[C@H](O)C[C@@H]1[C@@]3(C)CC[C@H](O)C(C)(C)[C@@H]3[C@@H](O[C@@H]3O[C@H](CO)[C@@H](O)[C@H](O)[C@H]3O[C@@H]3O[C@@H](C)[C@H](O)[C@@H](O)[C@H]3O)C[C@]12C [Re, ginsenoside Re]",analgesic effect,mice,analgesic effect
"CC(C)=CCC[C@](C)(O)[C@H]1CC[C@]2(C)[C@@H]1[C@H](O)C[C@@H]1[C@@]3(C)CC[C@H](O)C(C)(C)[C@@H]3[C@@H](O[C@@H]3O[C@H](CO)[C@@H](O)[C@H](O)[C@H]3O[C@@H]3O[C@H](CO)[C@@H](O)[C@H](O)[C@H]3O)C[C@]12C [Rf, ginsenoside Rf]",analgesic effect,mice,analgesic effect
CC(C)=CCC[C@](C)(O[C@@H]1O[C@H](CO[C@@H]2O[C@H](CO)[C@@H](O)[C@H](O)[C@H]2O)[C@@H](O)[C@H](O)[C@H]1O)[C@H]1CC[C@]2(C)[C@@H]1[C@H](O)C[C@@H]1[C@@]3(C)CC[C@H](O[C@@H]4O[C@H](CO)[C@@H](O)[C@H](O)[C@H]4O[C@@H]4O[C@H](CO)[C@@H](O)[C@H](O)[C@H]4O)C(C)(C)[C@@H]3CC[C@]12C [ginsenoside Rb1],"hyperalgesia (heat test, withdrawal latency)",[2],hyperalgesia was significantly relieved
same,"allodynia (pressure test, von Frey pain threshold)",[3],allodynia was not ameliorated
same,"allodynia (pressure test, von Frey pain threshold)",[3]; listed as Rb1,amelioration of allodynia was not observed
same,"heat test, animals administered vs not administered with 5,7-DHT, Rb1-administered groups","[1]; 5,7-DHT intradurally 60 μL g 1 week before measurement",no significant difference
same,"heat test before and after administration of naloxone, Rb1-administered groups","[1]; naloxone 5 mg/kg s.c., heat test again one hour later",no significant difference
same,"hyperalgesia suppressing effect after administration of phentolamine, Rb1-administered groups","[1]; phentolamine 20 mg/kg s.c., heat test again one hour later",significantly inhibited
same,"heat test before and after administration of propranolol, Rb1-administered groups","[1]; propranolol 10 mg/kg s.c., heat test again one hour later",no significant difference
same,expression level of the α2A-adrenergic receptor mRNA in the spinal cord,[4],significantly increased
same,expression level of the α2A-adrenergic receptor protein in the spinal cord,[5],significantly increased
same,delayed nerve cell death,[6],inhibition of delayed nerve cell death
same,learning and behavioral impairment,[6],improvement of learning and behavioral impairment
same,delayed nerve cell death in the hippocampus CA1 region,[7],significantly reduced
same,response latency in a passive avoidance learning experiment,"[7]; dose-dependent, compared with a control",significantly prolonged
"C=CCN1CC[C@]23c4c5ccc(O)c4O[C@H]2C(=O)CC[C@@]3(O)[C@H]1C5 [naloxone, reference compound]","heat test with vs without / before vs after the depletor or blocker, control group",[1]; phentolamine 20 mg/kg s.c.,no significant difference
"Cc1ccc(N(CC2=NCCN2)c2cccc(O)c2)cc1 [phentolamine, reference compound]","heat test with vs without / before vs after the depletor or blocker, control group",[1]; phentolamine 20 mg/kg s.c.,no significant difference
"CC(C)NCC(O)COc1cccc2ccccc12 (stereo not drawn) [propranolol, reference compound]","heat test with vs without / before vs after the depletor or blocker, control group",[1]; phentolamine 20 mg/kg s.c.,no significant difference
